Source: patent publication US20100292231A1, “Indazole Compounds for Treating Inflammatory Disorders, Demyelinating Disorders and Cancers” (priority 2007, published 2010)
Like-named read-outs stand apart in the source and are kept apart here.

Experiments:
Assay in all cases: SelectScreen kinase specificity survey
Assay type in all cases: biochemical
CAMK1D (CaMKI delta) = biological target: T1, CAMK1D (CaMKI delta) (Homo sapiens, UniProt Q8IU85); conditions: estimated, abridged dose response curve, read-out: Kinase inhibitory activity EC50
T1 construct: purchased Invitrogen, Inc. (SelectScreen platform)
Outline: (§1)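 Dose-response: 5 graded inhibitor additions per kinase, with ATP at 100 micromolar and detection by an optical reporter on a kinase-unique substrate. The sigmoid saturation fit has four parameters (Hill); EC50 is an estimate.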

ROCK1 = biological target: T2, ROCK1 (Homo sapiens, UniProt Q13464); conditions: estimated, abridged dose response curve, read-out: Kinase inhibitory activity EC50
T2 construct: purchased Invitrogen (SelectScreen platform)
Outline: as §1

MAP2K1 (MEK1) = biological target: T3, MAP2K1 (MEK1) (Homo sapiens, UniProt Q02750); conditions: estimated, abridged dose response curve, read-out: Kinase inhibitory activity EC50
T3 construct: purchased Invitrogen (SelectScreen platform)
Outline: as §1

AMPK A2/B1/G1 = biological target: T4, AMPK A2/B1/G1 (Homo sapiens, UniProt P54619+P54646+Q9Y478); conditions: estimated, abridged dose response curve, read-out: Kinase inhibitory activity EC50
T4 construct: purchased Invitrogen, Inc. (SelectScreen platform)
Outline: as §1

BTK = biological target: T5, BTK (Homo sapiens, UniProt Q06187); conditions: estimated, abridged dose response curve, read-out: Kinase inhibitory activity EC50
T5 construct: purchased Invitrogen (SelectScreen)
Outline: as §1

SRPK1 = biological target: T6, SRPK1 (Homo sapiens, UniProt Q96SB4); conditions: estimated, abridged dose response curve, read-out: Kinase inhibitory activity EC50
T6 construct: purchased Invitrogen, Inc. (SelectScreen service)
Outline: as §1

ZAP70 = biological target: T7, ZAP70 (Homo sapiens, UniProt P43403); conditions: estimated, abridged dose response curve, read-out: Kinase inhibitory activity EC50
T7 construct: purchased Invitrogen (SelectScreen)
Outline: as §1

AMPK A1/B1/G1 = biological target: T8, AMPK A1/B1/G1 (Homo sapiens, UniProt P54619+Q13131+Q9Y478); conditions: estimated, abridged dose response curve, read-out: Kinase inhibitory activity EC50
T8 construct: purchased Invitrogen, Inc. (SelectScreen platform)
Outline: as §1

MARK1 (MARK) = biological target: T9, MARK1 (MARK) (Homo sapiens, UniProt Q9P0L2); conditions: estimated, abridged dose response curve, read-out: Kinase inhibitory activity EC50
T9 construct: purchased Invitrogen, Inc. (SelectScreen platform)
Outline: as §1

CHEK2 (CHK2) = biological target: T10, CHEK2 (CHK2) (Homo sapiens, UniProt O96017); conditions: estimated, abridged dose response curve, read-out: Kinase inhibitory activity EC50
T10 construct: purchased Invitrogen, Inc. (SelectScreen platform)
Outline: as §1

PASK = biological target: T11, PASK (Homo sapiens, UniProt Q96RG2); conditions: estimated, abridged dose response curve, read-out: Kinase inhibitory activity EC50
T11 construct: purchased Invitrogen, Inc. (SelectScreen platform)
Outline: as §1

EPHB2 = biological target: T12, EPHB2 (Homo sapiens, UniProt P29323); conditions: estimated, abridged dose response curve, read-out: Kinase inhibitory activity EC50
T12 construct: purchased Invitrogen (SelectScreen service)
Outline: as §1

IRAK4 = biological target: T13, IRAK4 (Homo sapiens, UniProt Q9NWZ3); conditions: estimated, abridged dose response curve, read-out: Kinase inhibitory activity EC50
T13 construct: purchased Invitrogen, Inc. (SelectScreen platform)
Outline: as §1

CAMK2B (CaMKII beta) = biological target: T14, CAMK2B (CaMKII beta) (Homo sapiens, UniProt Q13554); conditions: estimated, abridged dose response curve, read-out: Kinase inhibitory activity EC50
T14 construct: purchased Invitrogen, Inc. (SelectScreen platform)
Outline: as §1

ABL1 = biological target: T15, ABL1 (Homo sapiens, UniProt P00519); conditions: estimated, abridged dose response curve, read-out: Kinase inhibitory activity EC50
T15 construct: purchased Invitrogen (SelectScreen platform)
Outline: as §1

IKBKB (IKK beta) = biological target: T16, IKBKB (IKK beta) (Homo sapiens, UniProt O14920); conditions: estimated, abridged dose response curve, read-out: Kinase inhibitory activity EC50
T16 construct: purchased Invitrogen, Inc. (SelectScreen service)
Outline: as §1

SGKL (SGK3) = biological target: T17, SGKL (SGK3) (Homo sapiens, UniProt Q96BR1); conditions: estimated, abridged dose response curve, read-out: Kinase inhibitory activity EC50
T17 construct: purchased Invitrogen, Inc. (SelectScreen platform)
Outline: as §1

TYRO3 (RSE) = biological target: T18, TYRO3 (RSE) (Homo sapiens, UniProt Q06418); conditions: estimated, abridged dose response curve, read-out: Kinase inhibitory activity EC50
T18 construct: purchased Invitrogen (SelectScreen service)
Outline: as §1

EPHA3 = biological target: T19, EPHA3 (Homo sapiens, UniProt P29320); conditions: estimated, abridged dose response curve, read-out: Kinase inhibitory activity EC50
T19 construct: purchased Invitrogen (SelectScreen service)
Outline: as §1

SYK = biological target: T20, SYK (Homo sapiens, UniProt P43405); conditions: estimated, abridged dose response curve, read-out: Kinase inhibitory activity EC50
T20 construct: purchased Invitrogen (SelectScreen)
Outline: as §1

RET V804L = biological target: T21, RET V804L (Homo sapiens, UniProt P07949, V804L); conditions: estimated, abridged dose response curve, read-out: Kinase inhibitory activity EC50
T21 construct: purchased Invitrogen (SelectScreen)
Outline: as §1

CSF1R (FMS) = biological target: T22, CSF1R (FMS) (Homo sapiens, UniProt P07333); conditions: estimated, abridged dose response curve, read-out: Kinase inhibitory activity EC50
T22 construct: purchased Invitrogen (SelectScreen platform)
Outline: as §1

DAPK3 (ZIPK) = biological target: T23, DAPK3 (ZIPK) (Homo sapiens, UniProt O43293); conditions: estimated, abridged dose response curve, read-out: Kinase inhibitory activity EC50
T23 construct: purchased Invitrogen, Inc. (SelectScreen platform)
Outline: as §1

GRK6 = biological target: T24, GRK6 (Homo sapiens, UniProt P43250)
T24 construct: purchased Invitrogen (SelectScreen platform)
Outline: as §1

MAP4K5 (KHS1) = biological target: T25, MAP4K5 (KHS1) (Homo sapiens, UniProt Q9Y4K4); conditions: estimated, abridged dose response curve, read-out: Kinase inhibitory activity EC50
T25 construct: purchased Invitrogen (SelectScreen platform)
Outline: as §1

LYN B = biological target: T26, LYN B (Homo sapiens, UniProt P07948); conditions: estimated, abridged dose response curve, read-out: Kinase inhibitory activity EC50
T26 construct: purchased Invitrogen (SelectScreen)
Outline: as §1

RPS6KA6 (RSK4) = biological target: T27, RPS6KA6 (RSK4) (Homo sapiens, UniProt Q9UK32); conditions: estimated, abridged dose response curve, read-out: Kinase inhibitory activity EC50
T27 construct: purchased Invitrogen, Inc. (SelectScreen platform)
Outline: as §1

T26 sequence (P07948 1-491 isoform P07948-2): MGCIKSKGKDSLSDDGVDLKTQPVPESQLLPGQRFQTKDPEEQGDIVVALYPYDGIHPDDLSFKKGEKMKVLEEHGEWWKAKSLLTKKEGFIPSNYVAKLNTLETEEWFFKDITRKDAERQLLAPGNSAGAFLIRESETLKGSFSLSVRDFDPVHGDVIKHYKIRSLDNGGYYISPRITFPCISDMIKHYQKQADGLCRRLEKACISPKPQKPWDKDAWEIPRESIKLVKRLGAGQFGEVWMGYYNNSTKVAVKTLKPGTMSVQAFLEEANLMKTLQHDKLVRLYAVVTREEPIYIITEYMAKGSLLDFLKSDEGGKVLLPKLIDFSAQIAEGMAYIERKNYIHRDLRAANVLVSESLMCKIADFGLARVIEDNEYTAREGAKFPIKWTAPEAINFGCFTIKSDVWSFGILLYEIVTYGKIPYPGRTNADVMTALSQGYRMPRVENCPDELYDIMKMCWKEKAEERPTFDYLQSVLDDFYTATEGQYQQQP
T6 sequence (Q96SB4 whole entry): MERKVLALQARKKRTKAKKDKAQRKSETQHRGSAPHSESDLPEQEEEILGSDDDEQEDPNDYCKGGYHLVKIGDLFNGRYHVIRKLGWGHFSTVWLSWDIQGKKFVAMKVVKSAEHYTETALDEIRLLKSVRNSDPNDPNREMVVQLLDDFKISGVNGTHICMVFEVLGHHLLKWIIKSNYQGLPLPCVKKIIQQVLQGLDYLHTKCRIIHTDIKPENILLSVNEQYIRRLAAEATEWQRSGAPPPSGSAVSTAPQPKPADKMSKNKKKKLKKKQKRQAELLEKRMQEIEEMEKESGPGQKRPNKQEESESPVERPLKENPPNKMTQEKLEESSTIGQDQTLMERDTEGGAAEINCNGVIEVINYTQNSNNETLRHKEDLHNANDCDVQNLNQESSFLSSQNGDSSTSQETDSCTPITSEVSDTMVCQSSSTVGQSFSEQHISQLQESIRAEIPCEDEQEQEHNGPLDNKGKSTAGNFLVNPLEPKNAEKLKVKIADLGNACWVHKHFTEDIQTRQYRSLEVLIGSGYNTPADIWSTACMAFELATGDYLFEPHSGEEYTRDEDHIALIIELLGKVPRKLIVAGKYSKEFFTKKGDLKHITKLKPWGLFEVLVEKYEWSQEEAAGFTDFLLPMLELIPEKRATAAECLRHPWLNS
T2 sequence (Q13464 whole entry): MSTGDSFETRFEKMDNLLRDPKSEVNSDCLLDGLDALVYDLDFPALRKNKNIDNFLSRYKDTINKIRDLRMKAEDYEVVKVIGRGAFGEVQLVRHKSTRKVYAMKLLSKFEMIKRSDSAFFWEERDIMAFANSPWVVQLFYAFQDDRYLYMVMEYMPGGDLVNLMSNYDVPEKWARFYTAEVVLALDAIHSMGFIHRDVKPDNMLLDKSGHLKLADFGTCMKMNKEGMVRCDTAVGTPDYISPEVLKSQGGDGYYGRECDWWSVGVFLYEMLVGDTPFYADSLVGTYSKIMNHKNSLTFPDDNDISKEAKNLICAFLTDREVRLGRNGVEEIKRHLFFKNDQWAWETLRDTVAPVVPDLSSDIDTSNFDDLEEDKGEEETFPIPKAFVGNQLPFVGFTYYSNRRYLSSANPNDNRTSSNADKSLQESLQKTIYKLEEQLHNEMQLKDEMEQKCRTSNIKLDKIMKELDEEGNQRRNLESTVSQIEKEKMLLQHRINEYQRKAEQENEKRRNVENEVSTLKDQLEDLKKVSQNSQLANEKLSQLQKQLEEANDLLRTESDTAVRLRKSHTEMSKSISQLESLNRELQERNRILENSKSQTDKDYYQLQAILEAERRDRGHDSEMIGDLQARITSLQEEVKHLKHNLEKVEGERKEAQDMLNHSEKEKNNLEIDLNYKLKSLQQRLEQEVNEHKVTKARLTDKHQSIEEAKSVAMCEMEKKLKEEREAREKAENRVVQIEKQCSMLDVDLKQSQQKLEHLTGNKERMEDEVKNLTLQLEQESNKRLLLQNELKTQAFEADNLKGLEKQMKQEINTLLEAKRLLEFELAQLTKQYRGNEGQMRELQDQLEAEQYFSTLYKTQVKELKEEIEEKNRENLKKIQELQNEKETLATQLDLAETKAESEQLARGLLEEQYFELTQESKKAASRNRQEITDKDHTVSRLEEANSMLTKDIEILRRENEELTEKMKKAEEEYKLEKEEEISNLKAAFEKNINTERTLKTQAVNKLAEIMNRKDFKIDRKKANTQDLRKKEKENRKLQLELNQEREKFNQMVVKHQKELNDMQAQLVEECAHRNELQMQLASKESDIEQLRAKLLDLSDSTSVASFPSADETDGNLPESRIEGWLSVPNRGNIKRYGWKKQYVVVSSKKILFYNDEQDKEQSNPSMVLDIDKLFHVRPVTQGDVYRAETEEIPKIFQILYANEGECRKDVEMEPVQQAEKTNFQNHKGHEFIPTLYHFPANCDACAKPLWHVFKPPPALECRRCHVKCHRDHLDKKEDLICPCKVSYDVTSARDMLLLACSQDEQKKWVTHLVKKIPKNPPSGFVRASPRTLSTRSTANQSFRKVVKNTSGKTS
T19 sequence (P29320 21-983): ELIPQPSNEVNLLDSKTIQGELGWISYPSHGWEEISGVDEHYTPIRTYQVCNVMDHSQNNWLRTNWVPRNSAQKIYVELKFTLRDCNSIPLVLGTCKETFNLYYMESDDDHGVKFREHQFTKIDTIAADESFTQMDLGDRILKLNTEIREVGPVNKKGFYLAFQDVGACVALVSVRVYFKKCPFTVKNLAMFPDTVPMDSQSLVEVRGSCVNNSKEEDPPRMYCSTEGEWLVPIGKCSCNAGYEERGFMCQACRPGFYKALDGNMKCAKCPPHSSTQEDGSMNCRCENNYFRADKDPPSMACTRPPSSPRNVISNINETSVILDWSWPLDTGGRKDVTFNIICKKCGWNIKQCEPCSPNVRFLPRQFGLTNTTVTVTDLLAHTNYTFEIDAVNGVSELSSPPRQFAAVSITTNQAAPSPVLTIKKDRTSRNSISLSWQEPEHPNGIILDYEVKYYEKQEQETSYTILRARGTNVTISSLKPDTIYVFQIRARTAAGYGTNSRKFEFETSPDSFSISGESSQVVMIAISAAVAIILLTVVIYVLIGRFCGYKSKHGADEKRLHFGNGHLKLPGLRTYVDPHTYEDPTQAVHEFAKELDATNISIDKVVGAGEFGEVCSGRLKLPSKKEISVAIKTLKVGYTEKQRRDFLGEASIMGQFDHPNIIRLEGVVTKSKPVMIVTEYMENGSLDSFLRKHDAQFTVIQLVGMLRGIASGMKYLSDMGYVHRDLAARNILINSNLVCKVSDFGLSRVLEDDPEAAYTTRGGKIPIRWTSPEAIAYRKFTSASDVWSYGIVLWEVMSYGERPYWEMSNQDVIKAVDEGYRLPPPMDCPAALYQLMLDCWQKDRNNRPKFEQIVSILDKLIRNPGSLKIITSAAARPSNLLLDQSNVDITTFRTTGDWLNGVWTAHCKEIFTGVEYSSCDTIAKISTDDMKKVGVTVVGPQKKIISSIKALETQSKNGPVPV
T10 sequence (O96017 whole entry): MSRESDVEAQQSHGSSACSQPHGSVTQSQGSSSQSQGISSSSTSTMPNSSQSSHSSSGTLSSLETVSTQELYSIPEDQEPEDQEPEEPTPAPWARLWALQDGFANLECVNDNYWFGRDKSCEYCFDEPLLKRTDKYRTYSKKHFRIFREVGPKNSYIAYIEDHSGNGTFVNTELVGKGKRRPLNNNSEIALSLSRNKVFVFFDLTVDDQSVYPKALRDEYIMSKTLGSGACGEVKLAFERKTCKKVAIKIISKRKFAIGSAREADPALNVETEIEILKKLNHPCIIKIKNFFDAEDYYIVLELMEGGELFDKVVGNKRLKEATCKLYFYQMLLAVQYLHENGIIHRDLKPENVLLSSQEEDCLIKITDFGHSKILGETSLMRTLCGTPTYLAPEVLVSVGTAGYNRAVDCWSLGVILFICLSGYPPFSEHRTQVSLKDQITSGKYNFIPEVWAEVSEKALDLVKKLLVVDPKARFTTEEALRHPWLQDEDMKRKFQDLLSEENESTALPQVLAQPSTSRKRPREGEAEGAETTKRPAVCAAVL
T23 sequence (O43293 whole entry): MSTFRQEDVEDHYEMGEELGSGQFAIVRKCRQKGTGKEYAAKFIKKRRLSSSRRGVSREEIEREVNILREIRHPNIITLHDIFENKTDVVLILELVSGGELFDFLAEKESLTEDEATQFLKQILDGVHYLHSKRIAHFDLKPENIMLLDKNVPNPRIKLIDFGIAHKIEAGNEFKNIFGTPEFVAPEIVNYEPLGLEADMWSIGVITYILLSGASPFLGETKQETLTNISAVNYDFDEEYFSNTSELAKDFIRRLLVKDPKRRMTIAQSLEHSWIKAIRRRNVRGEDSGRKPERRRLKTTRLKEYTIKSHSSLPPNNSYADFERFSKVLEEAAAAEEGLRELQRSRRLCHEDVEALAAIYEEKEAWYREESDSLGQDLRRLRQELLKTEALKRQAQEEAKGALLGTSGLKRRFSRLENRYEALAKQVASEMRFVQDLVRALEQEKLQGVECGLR
T13 sequence (Q9NWZ3 whole entry): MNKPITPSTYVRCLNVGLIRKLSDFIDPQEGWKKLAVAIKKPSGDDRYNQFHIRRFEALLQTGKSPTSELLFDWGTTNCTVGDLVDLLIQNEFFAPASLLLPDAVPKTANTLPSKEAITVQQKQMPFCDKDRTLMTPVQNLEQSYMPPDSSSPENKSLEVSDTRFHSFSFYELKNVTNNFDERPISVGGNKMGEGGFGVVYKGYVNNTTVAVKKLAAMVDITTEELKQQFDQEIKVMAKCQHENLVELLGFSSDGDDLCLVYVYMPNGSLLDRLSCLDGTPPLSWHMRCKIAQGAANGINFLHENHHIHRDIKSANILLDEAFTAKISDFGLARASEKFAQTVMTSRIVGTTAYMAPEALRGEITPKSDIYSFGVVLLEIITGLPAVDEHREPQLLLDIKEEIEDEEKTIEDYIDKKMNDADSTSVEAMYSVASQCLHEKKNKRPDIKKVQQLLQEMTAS

Structure (SMILES)	EC50 (CAMK1D (CaMKI delta))	EC50 (ROCK1)	EC50 (MAP2K1 (MEK1))	EC50 (AMPK A2/B1/G1)	EC50 (BTK)	EC50 (SRPK1)	EC50 (ZAP70)	EC50 (AMPK A1/B1/G1)	EC50 (MARK1 (MARK))	EC50 (CHEK2 (CHK2))	EC50 (PASK)	EC50 (EPHB2)	EC50 (IRAK4)	EC50 (CAMK2B (CaMKII beta))	EC50 (ABL1)	EC50 (IKBKB (IKK beta))	EC50 (SGKL (SGK3))	EC50 (TYRO3 (RSE))	EC50 (EPHA3)	EC50 (SYK)	also measured
CN(C)CCCNc1ccc2ncn3c4ccc5[nH]ncc5c4c(=O)c1c23 [Compound (IV)]	2.78 µM	487 nM	> 5 µM	1570 nM	1440 nM	> 5 µM	> 5 µM	> 5 µM	> 5 µM	> 5 µM	1230 nM	> 5 µM	3320 nM	> 5 µM	3.78 µM	2800 nM	> 5 µM	3.57 µM	> 5 µM	> 5 µM	EC50 (RET V804L): 864 nM; EC50 (CSF1R (FMS)): 205 nM; EC50 (DAPK3 (ZIPK)): 973 nM; EC50 (GRK6; GRK6, estimated, abridged dose response curve, read-out: Kinase inhibitory activity EC50): > 5 µM; EC50 (MAP4K5 (KHS1)): > 5000 nM; EC50 (LYN B): 426 nM; EC50 (RPS6KA6 (RSK4)): 655 nM
CCN(CC)CCNc1ccc2ncn3c4ccc(O)cc4c(=O)c1c23 [Symadex, 5-(2-(diethylamino)ethylamino)-8-hydroxy-6H-imidazo[4,5,1-de]acridin-6-one, reference compound]	4 µM	> 5000 nM	> 5 µM	1790 nM	3020 nM	> 5 µM	> 5 µM	3.48 µM	3.19 µM	> 5 µM	4320 nM	> 5 µM	847 nM	> 5 µM	> 5 µM	> 5000 nM	> 5 µM	2.44 µM	> 5 µM	3.91 µM	EC50 (RET V804L): 735 nM; EC50 (CSF1R (FMS)): 428 nM; EC50 (DAPK3 (ZIPK)): > 5000 nM; EC50 (GRK6): > 5 µM; EC50 (MAP4K5 (KHS1)): 2430 nM; EC50 (LYN B): 812 nM; EC50 (RPS6KA6 (RSK4)): 182 nM
